Here are results for two molecules from patent US20260061080A1, “FLUORESCENT COMPOUND BASED ON NEW INDOCYANINE GREEN IR820, AND PREPARATION AND USE THEREOF” (Shanghai Fluoresoma Medical Technology Co., Ltd., priority 2023, published 2026).

For assay [1], the system named is tumor sites of tumor-bearing mice. Briefly: Fluorescence imaging of IR820-cRGD in living tumor-bearing mice. The format is in vivo. As to conditions: tail vein injection, solution in pure water at 10 μM (or equal equivalent probe concentration), observed 2 hours later; FIG. 5. The method, then: Three tumor-bearing mice were administered with an IR820-cRGD solution in pure water at a concentration of 10 μM, a […] solution in pure water at an equal equivalent probe concentration, and an IR820 solution in pure water at an equal equivalent probe concentration through tail vein injection, respectively. 2 hours later, tumor sites of the mice were observed using an in vivo imaging instrument for small animals to obtain imaging situations.

Assay [2] relates to breast cancer cells (MCF-7), cervical cancer cells (Hela), normal cells (CHO). As to conditions: 10 μL of 1 mM DMSO mother solution of probe in 2 mL culture dish; CHO vs MCF-7 and Hela; FIG. 4.
Protocol: An instrument model used for cell imaging is a Leica TCS SP5 II confocal laser scanning microscope using a HC×PLAPO 63×oil objective (NA: 1.40).
The experiment was carried out in three groups, with one group using normal cells (CHO), one group using breast cancer cells (MCF-7), and one group using cervical cancer cells (Hela). Before an imaging test, a cultured cell culture solution was first sucked away, and the cells were washed once with a PBS buffer solution, and then washed once with DMEM or 1640. 10 μL of a formulated DMSO mother solution with a probe concentration of 1 mM was measured and added into a 2 mL culture dish containing a fresh DMEM or 1640 culture medium. After culture was completed, the excessive culture solution was first removed, the cells were washed with a PBS buffer solution (pH 7.4) to remove an excessive probe, and then the imaging test was carried out on the cells separately using a confocal fluorescence microscope.

Turning to `CC1(C)C(/C=C/C2=C(Cl)C(=C/C=C3/N(CCCCS(=O)(=O)[O-])c4ccc5ccccc5c4C3(C)C)/CCC2)=[N+](CCCCS(=O)(=O)O)c2ccc3ccccc3c21` [IR820], the “fluorescence signal at the tumor site” value in assay [1] is on record as “weak fluorescence signal”.

Regarding `CC1(C)C(/C=C/C2=C(Oc3ccc(CCC(=O)NCCCC[C@@H]4NC(=O)[C@@H](Cc5ccccc5)NC(=O)[C@H](CC(=O)O)NC(=O)CNC(=O)[C@H](CCCNC(=N)N)NC4=O)cc3)C(=C/C=C3/N(CCCCS(=O)(=O)O)c4ccc5ccccc5c4C3(C)C)/CCC2)=[N+](CCCCS(=O)(=O)O)c2ccc3ccccc3c21` [IR820-cRGD], the “fluorescence signal in cells (selectivity for tumor cells)” value in assay [2] is “greater selective fluorescence signals for the tumor cells”. The “fluorescence signal at the tumor site” value in assay [1] is given as “highly bright fluorescence signal”.
